Measurements from patent EP2659887A1, “Use of A-ring aromatic acetyl minocycline and pharmaceutical preparations derived from same for treatment and prevention of inflammation, autoimmune disorders and rejection of transplants” (priority 2012, dated 2013).

Columns and labels:
[1] = tested on: humane T-Lymphozyten; assay: Viability of stimulated human T lymphocytes (CellTiter-Blue Cell Viability Assay); conditions: up to 5,0 µM; PWM (Figur 2A) or anti-CD3 (Figur 2B) stimulation
Description: Humane T-Lymphozyten wurden in serumfreiem Kulturmedium mit anti-CD3-Antikörpern (Klon OKT3) bzw. mit Pokeweed-Mitogen (PWM, 2 µg/ml) in An- und Abwesenheit verschiedener Konzentrationen von Minocyclin oder Pentaacetylcyclin stimuliert. Die Ermittlung der Proliferation (DNS-Synthese) der Zellen erfolgte nach 72 Stunden über den Einbau von 3H-Thymidin. Zur Überprüfung der Vitalität der Zellkulturen wurde der CeIITiter-Blue® Cell Viability-Assay (Promega) verwendet.

[2] = tested on: humane T-Lymphozyten; assay: Proliferation (DNA synthesis, 3H-thymidine incorporation) of stimulated human T lymphocytes; type: cell-based; conditions: remaining proliferation; PWM or anti-CD3 stimulation, 2,5 bis 5,0 µM
Source text: In in vitro-Untersuchungen dienten humane T-Lymphozyten des peripheren Blutes gesunder Spender zur Testung der immunmodulatorischen/immunsuppressiven Wirkung der Testsubstanzen. Eine gesteigerte Zellteilung/Proliferation dieser Immunzellen nach Stimulation simuliert in vitro eine Entzündungsreaktion. Eine Verringerung dieser stimulierten Proliferation durch applizierte Substanzen veranschaulicht deren immunmodulatorischen/immunsuppressiven Eigenschaften.

[3] = tested on: humane T-Lymphozyten; assay: Cytokine production of PWM-stimulated human T lymphocytes (ELISA of culture supernatants); type: cell-based; conditions: PWM 2 µg/ml, 48 h
Source text: Zytokine stellen Indikatoren für die Stärke einer Entzündungsreaktion dar und sind aktive Regulatoren der Differenzierung und Proliferation von T-Lymphozyten. Aus diesem Grund lassen sich aus den in einem in vitro-Testsystem gewonnenen Daten zur Produktion/Freisetzung von Zytokinen detailliertere Aussagen über die immunmodulierenden/immunsuppressiven Eigenschaften von Testsubstanzen herleiten.
Anschließend erfolgte die Messung der Konzentrationen von Interferon-y (IFN-y), Interleukin-2 (IL-2) und Interleukin-17 (IL-17) in den Zellkulturüberständen mittels spezifischer ELISA (R&D Systems).

[4] = tested on: Splenozyten (Milzzellen) von SJL/J-Mäusen; assay: Proliferation (DNA synthesis, 3H-thymidine incorporation) of stimulated mouse splenocytes; type: cell-based, Maus; conditions: 2,5 bzw. 5,0 µM
Description: (§1) In weiteren in vitro-Untersuchungen dienten Splenozyten (Milzzellen) von SJL/J-Mäusen zur Testung der immunmodulatorischen/immunsuppressiven Wirkung der Testsubstanzen. Nach Stimulation der Splenozyten mit Pokeweed-Mitogen (PWM, 1 μg/ml) oder mit […] (Klon 145-2C11, BD Biosciences) erfolgte die Inkubation dieser Immunzellen in An- oder Abwesenheit verschiedener Konzentrationen von Minocyclin und Pentaacetylcyclin. Die anschließende Proliferation (DNS-Synthese) der Zellen wurde nach 72 Stunden über den Einbau von […]-Blue® Cell Viability-Assays (Promega).

[5] = tested on: Splenozyten (Milzzellen) von SJL/J-Mäusen; assay: Viability of stimulated mouse splenocytes (CellTiter-Blue Cell Viability Assay); type: cell-based, Maus; conditions: up to 5,0 µM; PWM (Figur 5A) or anti-CD3 (Figur 5B) stimulation
Description: as §1

[6] = tested on: Splenozyten (Milzzellen) der SJL/J-Mäuse; assay: Cytokine release of PWM-stimulated mouse splenocytes (ELISA of culture supernatants); type: cell-based, Maus; conditions: Splenocyte, remaining release at 5,0 µM, 48 h (Figur 6A), read-out: Reduktion der Freisetzung von IFN-γ (auf)
Description: Zur Verifizierung der an humanen […] in vitro-Untersuchungen an Splenozyten (Milzzellen) der SJL/J-Mäuse. Diese Splenozyten von wurden mit Pokeweed-Mitogen (PWM, 1 μg/ml) stimuliert und in An- oder Abwesenheit verschiedener Konzentrationen von Minocyclin und Pentaacetylcyclin inkubiert. Nach 48 Stunden erfolgte die Analyse der Zellkulturüberstände hinsichtlich der Freisetzung der Zytokine Interferon-y (IFN-y) und Interleukin-17 (IL-17) mittels spezifischer ELISA (R&D Systems).

[7] = tested on: Experimentelle Autoimmune Enzephalomyelitis (EAE); assay: Experimental autoimmune encephalomyelitis (EAE) mouse model of multiple sclerosis, therapeutic treatment, EAE score; type: in vivo, SJL/J-Maus; conditions: 100 µg/Tag; for Effekt auf die akute Phase der EAE (EAE-Score): intraperitoneal, Tag 12 bis Tag 20, therapeutic
Source text: Als Maß für die Wirkung der therapeutischen Applikation wurde täglich der Schweregrad der EAE-Erkrankung (EAE-Score) bestimmt.

[8] = tested on: Experimentelle Autoimmune Enzephalomyelitis (EAE); assay: Number of inflammatory immune cell infiltrates in the spinal cord after EAE (histology); type: in vivo, SJL/J-Mäusen; conditions: intraperitoneal or oral, 100 µg/Tag, Tag 13 bis Tag 17; analysis Tag 20
Source text: Als Folge einer T-Lymphozyten-Aktivierung und -Differenzierung kommt es bei der EAE zu einer massiven Einwanderung (Infiltration) von Immunzellen in das Rückenmark der Mäuse. Diese Immunzellen vermitteln durch Demyeliniserung und neuronale Schädigung die weitere Erkrankung und lassen sich auf histologischen Schnitten als entzündliche Infiltrate darstellen und analysieren. Die Stärke der Infiltration von Immunzellen in das Rückenmark während der EAE korreliert im Allgemeinen mit dem Schweregrad der EAE-Erkrankung.
Deshalb erfolgte die histologische Analyse der entzündlichen Infiltrate im Rückenmark von SJL/J-Mäusen nach EAE und 5-tägiger therapeutischer Applikation von Minocycline bzw. Pentaacetylcyclin.
Die EAE wurde in SJL/J-Mäusen durch Immunisierung mit einem Myelinprotein-Peptid (Proteolipid-Protein 139-151, PLP 139-151) induziert. Die Applikation von Minocyclin, Pentaacetylcyclin und einem Kontroll-Vehikel erfolgte in einem therapeutischen Ansatz (nach eindeutiger Ausbildung der EAE-Erkrankung) in zwei getrennten Versuchsansätzen: • 1.) intraperitoneal (i.p., 100 µg/Tag) von Tag 13 bis Tag 17 • 2.) oral (100 µg/Tag) von Tag 13 bis Tag 17.
Am Tag 20 nach Immunisierung erfolgte die Aufarbeitung des Rückenmarks der Mäuse für histologische Untersuchungen (Paraffin-Schnitte, HE-Färbungen). […]

Row | Compound | Vitalität der T-Lymphozyten [1] | reduzierte Zellteilung (bis auf) [2] | Produktion/Freisetzung von IL-2 ([3]; 2,5 bis 5,0 µM (Figur 3A)) | Produktion/Freisetzung von IFN-γ ([3]; 2,5 bis 5,0 µM (Figur 3B)) | Produktion/Freisetzung von IL-17 ([3]; 2,5 bis 5,0 µM (Figur 3C)) | Proliferation (DNS-Synthese) stimulierter Splenozyten ([4]; PWM (1 µg/ml) or anti-CD3 (145-2C11) stimulation, 72 h) | reduzierte Zellteilung (bis auf) ([4]; remaining proliferation, 4320 min) | Vitalität der Splenozyten [5] | activity at 5 µM [6] [%] | Effekt auf die akute Phase der EAE (EAE-Score) [7] | Effekt auf die akute Phase der EAE (EAE-Score) ([7]; listed as Pentaacetylminocyclin) | Einfluss auf die akute Phase der EAE (EAE-Score) ([7]; oral, Tag 14 bis Tag 22, therapeutic) | Zahl der entzündlichen Infiltrate im Rückenmark [8]
1 | CN(C)c1ccc(O)c2c1C[C@H]1C[C@H]3[C@H](N(C)C)C(O)=C(C(N)=O)C(=O)[C@@]3(O)C(O)=C1C2=O [Minocyclin] | nicht beeinträchtigt |  |  |  |  |  |  |  |  |  |  |  | 
2 | CC(=O)NC(=O)c1c(OC(C)=O)c2c(c(N(C)C)c1OC(C)=O)CC1Cc3c(N(C)C)ccc(OC(C)=O)c3C(=O)C1=C2OC(C)=O (centres unmarked) [Pentaacetylcyclin] | nicht beeinträchtigt | ca. 20% | signifikante Hemmung | signifikante Hemmung | signifikante Hemmung | signifikante Hemmung | ca. 30% | keine Veränderung | ~60 | signifikanten therapeutischen Effekt | signifikanten Einfluss | signifikanten Einfluss | deutliche Verringerung
